Assay results reported in US4873346A, “Substituted benzothiazoles, benzimidazoles, and benzoxazoles” (The Upjohn Company, priority 1985, dated 1989).
Structures can show the parent of a compound that is named as a salt.

Columns and labels:
[1] = tested on: mucus secretion; experiment: canine tracheal secretion model (inhibitory effect on mucus secretion); type: in vivo
Description: Several of the compounds of the present invention were also tested for their inhibitory effect on mucus secretion in the canine tracheal secretion model.

[2] = tested on: SRS-A formation; experiment: SRS-A inhibition in rat mononuclear cells challenged with calcium ionophore; type: cell-based; conditions: cysteine
Description: This test is conducted in rat mononuclear cells incubated in the presence of cysteine and challenged with a calcium ionophore (which induces SRS-A formation).

[3] = tested on: lipoxygenase; experiment: lipoxygenase inhibition, oxygen uptake of washed human platelets after arachidonic acid; type: cell-based
Description: Some ot the compounds of the present invention were also tested for lipoxygenase inhibition. Arachidonic acid is added to washed human platelets and the oxygen uptake is measured using oxygraph cells. A decrease of oxygen uptake versus the control cell indicates inhibition of lipoxygenase. For a full description of the procedure see, Wallach, et al., Biochim, Biophys. Acta. 231:445 (1976).

SMILES | inhibition of mucus secretion (in words) [1] | other results
C=CCCCCSc1nc2ccc(O)cc2s1.O=C(O)/C=C\C(=O)O [2-(5-hexenylthio)-6-benzothiazolol maleic acid salt] | caused inhibition | –
CCN(CC)CCCNc1nc2ccc(O)cc2s1.Cl.Cl [2-[[3-(Diethylamino)propyl]amino]-6-benzothiazolol Dihydrochloride] | caused inhibition | –
COC(=O)CCCCCNc1nc2ccc(O)cc2s1 [6-[(6-hydroxy-2-benzothiazolyl)aminohexanoic acid methyl ester] | – | inhibition on Indomethacin blocked/Arachidonic Acid (AA) induced mucus secretion ([1]; Indomethacin blocked/AA induced): 100%; inhibition on baseline mucus secretion ([1]; baseline): 21.8%; inhibition on hypoxia mucus secretion ([1]; hypoxia): 63.4%
C=CCNc1nc2ccc(O)cc2s1 [2-(2-propenylamino)-6-benzothiazolol, 2-(2-Propenylamino)-6-benzothiazolol] | caused inhibition of mucus secretion | inhibition of the leukotriene system (in words) [2]: active; inhibition of the lipoxygenase system (in words) [3]: active
COC(=O)CCCCCSc1nc2ccc(NC(=O)CCC(=O)O)cc2s1 [6-[[6-[(3-Carboxy-1-oxopropyl)amino]-2-benzothiazolyl]thio]hexanoic acid methyl ester, tromethamine salt] | caused inhibition | –
CCN(CC)CCCNc1nc2ccc(O)cc2s1 [2-[[3-(Diethylamino)propyl]amino]-6-benzothiazolol, hydroquinone dihydrochloride salt] | caused inhibition | –
C=CCCCCSc1nc2ccc(O)cc2[nH]1 [2-(5-hexenylthio)-H-benzimidazol-6-ol, 2-(5-Hexenylthio)-1H-benzimidazol-6-ol] | caused inhibition | –
